In patent publication EP4778516A1, “CALCIFICATION ENHANCER FOR OSTEOBLAST MC3T3-E1 CELL” (Watanabe Oyster Laboratory Co., Ltd., priority 2023, dated 2025):

Tests used:
Assay type in all cases: cell-based, mouse
NF-kB = NF-kB reporter assay (luciferase); settings: Fig. 8C
Protocol: An NF-kB-responsive luciferase reporter assay (pNF-kB-Luc, BD Biosciences) was performed according to the method previously described by the present inventors. MC3T3-E1 cells (2×10^4 cells per well in […] in a 96-well plate) were cultured for 24 hours in a-MEM containing 10% FBS and 1% P/S. After culture, the medium was removed, and the cells were washed twice with a-MEM without FBS or antibiotics. a-MEM ([…]) without FBS or antibiotics was then added to each well containing the cells. A reporter plasmid or an empty vector control (pGL3-Basic) was transfected into MC3T3-E1 cells using Lipofectamine 2000 Reagent (Invitrogen) in a-MEM without FBS or antibiotics. Five hours later, the medium was replaced with a-MEM containing 10% FBS and 1% P/S, and the cells were stimulated with TNF-a (1 or 10 ng/ml) for 24 hours. In parallel, the cells were cultured with either a reagent vehicle (1% ethanol as final concentration) or DHMBA (1 or 10 mM). After culture, the cells were extracted with Passive Lysis Buffer (Promega Corp., Madison, WI), and luciferase activity was measured using a Luciferase Assay System (Promega Corp.) with a microplate reader (Turner Designs, Inc., Sunnyvale, CA, USA). Equal transfection efficiency among all plasmids was validated by using the luciferase reporter plasmid pRL-SV40 (Promega Corp., Madison, WI).

MC3T3-E1 cells = test: Crosstalk (Transwell co-culture) between MC3T3-E1 cells and RAW264.7 cells; settings: DHMBA 1 or 10 mM
Protocol: To investigate crosstalk between osteoblast MC3T3-E1 cells and macrophage RAW264.7 cells, an assay was performed using Transwell chambers (Corning Inc., Life Sciences, catalog no. CLS3464-48EA, USA) equipped with a polycarbonate filter (pore size […], diameter 6.5 mm). MC3T3-E1 cells (1×10^5 cells per 1 ml medium) were added in a-MEM medium (1 ml) containing 10% FBS and 1% P/S in the lower chamber. RAW264.7 cells were suspended in DMEM containing 10% FBS and 1% P/S, and 0.5 ml of the suspension (5×10^4 cells/ml medium) was added to the upper chamber of each Transwell. RAW264.7 cells were incubated at 37°C for 1 hour under 5% CO2 and 95% air to allow attachment to the upper chamber. The plates equipped with the Transwell chambers were then placed in an incubator at 37°C under 5% CO2 and 95% air. To induce inflammatory conditions in RAW264.7 cells, LPS (100 ng/ml medium) was added to the upper chamber containing RAW264.7 cells. […] MC3T3-E1 cells attached to the dishes (wells) were counted as described in the section "Cell proliferation assay". […]
Thereafter, a Transwell chamber was placed in each culture well, and RAW264.7 cells were added to the upper chamber at 0.5 ml (5×10^4 cells/ml medium), in the presence or absence of LPS (100 ng/ml medium). […] Cells attached to the dishes (wells) were counted as described in the section "Cell proliferation assay".

NF-kB p65 = test: Western blotting of cell lysates; settings: 3 days
Protocol: MC3T3-E1 cells (1×10^6 cells in 10 ml medium in a 100-mm dish) were cultured for 3 days in a-MEM containing 10% FBS and 1% P/S in the presence of a reagent vehicle (1% ethanol as final concentration), DHMBA (10 mM), TNF-a (10 ng/ml medium), or DHMBA (10 mM) in combination with TNF-a (10 ng/ml). After culture, the dishes were washed three times with cold PBS (10 ml), and adherent cells were removed from the dishes by scraping in Cell Lysis Buffer (Cell Signaling Technology, Inc., Danvers, MA, USA). Protein samples obtained from the cell lysates were loaded ([…] per lane) and separated by SDS-polyacrylamide gel electrophoresis (12% SDS-PAGE), as previously described. After electrophoresis, the membranes were incubated overnight at 4°C with primary antibodies (each diluted 1:1,000) against target proteins NF-kB p65 (catalog no. 3034, rabbit) and b-actin (catalog no. 3700, mouse). […] Protein bands were then detected using a chemiluminescent substrate (catalog no. 34577, Thermo Fisher Scientific Inc., Rockford, IL, USA) on X-ray film. A total of four films obtained from four independent experiments using separate membranes were scanned using an Epson Perfection 1660 Photo scanner, and band intensities were quantified using ImageJ2 software (National Institutes of Health, Bethesda, MD, USA).

COc1c(O)cc(CO)cc1O [DHMBA, 3,5-dihydroxy-4-methoxybenzyl alcohol]
NF-kB promoter activity in MC3T3-E1 cells (NF-kB; DHMBA in the absence of TNF-a): reduced
TNF-a-induced increase of NF-kB promoter activity in MC3T3-E1 cells (NF-kB; TNF-a 1 or 10 ng/ml plus, 24 hours): suppressed
decrease of proliferation of MC3T3-E1 cells by co-culture with RAW264.7 cells (MC3T3-E1 cells; LPS 100 ng/ml in upper chamber, 3 days, Fig. 5C): suppressed
enhancement of death of MC3T3-E1 cells by co-culture with RAW264.7 cells (MC3T3-E1 cells; LPS 100 ng/ml, 48 hours, Fig. 5D): prevented
expression level of NF-kB p65 in MC3T3-E1 cells (NF-kB p65; DHMBA 10 mM, without TNF-a, Figs. 8A and 8B): reduced
TNF-a-induced increase of the level of NF-kB p65 (NF-kB p65; TNF-a 10 ng/ml plus DHMBA 10 mM, Fig. 8A and 8B): suppressed
